Test results from patent US20050148534A1, “Small molecule compositions and methods for increasing drug efficiency using compositions thereof” (priority 2003, published 2005).
Each block holds one compound with its values, some of them ahead of it.

Tests used:
[1] = biological target: T1, Topoisomerase II (Homo sapiens, UniProt P11388); experiment: Topoisomerase II assay; format: biochemical; conditions: doxorubicin and its conjugates; percent activity of Doxorubicin
T1 construct: purchased TopoGEN Inc. (Columbus, Ohio) 1009-1
T1 sequence (P11388 whole entry): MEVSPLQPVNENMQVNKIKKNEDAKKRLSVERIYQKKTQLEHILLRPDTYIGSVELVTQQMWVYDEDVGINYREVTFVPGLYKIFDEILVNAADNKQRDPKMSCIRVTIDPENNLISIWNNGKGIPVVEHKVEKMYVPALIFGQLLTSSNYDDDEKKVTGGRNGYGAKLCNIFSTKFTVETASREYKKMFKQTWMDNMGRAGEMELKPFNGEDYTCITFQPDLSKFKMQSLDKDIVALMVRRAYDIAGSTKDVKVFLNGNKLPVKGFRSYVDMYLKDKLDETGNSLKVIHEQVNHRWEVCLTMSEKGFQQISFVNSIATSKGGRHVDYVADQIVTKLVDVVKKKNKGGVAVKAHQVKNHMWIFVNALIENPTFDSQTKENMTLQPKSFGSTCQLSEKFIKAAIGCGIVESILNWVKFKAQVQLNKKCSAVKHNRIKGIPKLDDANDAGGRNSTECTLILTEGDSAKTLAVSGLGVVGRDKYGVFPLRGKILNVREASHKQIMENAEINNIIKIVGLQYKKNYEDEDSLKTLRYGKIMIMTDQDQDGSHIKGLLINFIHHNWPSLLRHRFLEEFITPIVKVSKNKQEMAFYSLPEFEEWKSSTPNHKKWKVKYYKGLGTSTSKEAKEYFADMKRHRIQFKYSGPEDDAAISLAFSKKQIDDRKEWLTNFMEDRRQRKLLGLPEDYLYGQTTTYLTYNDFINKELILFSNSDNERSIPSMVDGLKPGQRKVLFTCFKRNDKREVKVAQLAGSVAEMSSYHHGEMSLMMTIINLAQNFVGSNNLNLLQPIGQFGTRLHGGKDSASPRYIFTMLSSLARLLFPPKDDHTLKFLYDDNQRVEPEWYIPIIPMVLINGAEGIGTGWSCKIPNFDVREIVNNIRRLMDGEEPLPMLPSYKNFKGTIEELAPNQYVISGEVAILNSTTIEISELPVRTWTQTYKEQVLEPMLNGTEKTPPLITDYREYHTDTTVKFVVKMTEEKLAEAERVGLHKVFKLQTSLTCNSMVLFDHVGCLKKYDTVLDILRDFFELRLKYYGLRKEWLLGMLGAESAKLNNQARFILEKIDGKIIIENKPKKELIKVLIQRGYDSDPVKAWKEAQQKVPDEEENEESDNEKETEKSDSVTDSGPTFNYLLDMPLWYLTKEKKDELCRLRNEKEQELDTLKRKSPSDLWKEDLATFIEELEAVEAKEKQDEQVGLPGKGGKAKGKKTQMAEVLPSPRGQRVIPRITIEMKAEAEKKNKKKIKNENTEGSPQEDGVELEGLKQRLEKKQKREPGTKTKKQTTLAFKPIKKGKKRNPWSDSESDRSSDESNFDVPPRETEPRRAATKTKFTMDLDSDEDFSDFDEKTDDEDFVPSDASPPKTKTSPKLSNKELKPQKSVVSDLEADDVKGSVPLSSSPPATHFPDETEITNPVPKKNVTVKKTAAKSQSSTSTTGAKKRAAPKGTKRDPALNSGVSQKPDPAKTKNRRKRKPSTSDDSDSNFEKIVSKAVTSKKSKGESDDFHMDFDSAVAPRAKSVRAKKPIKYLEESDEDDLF
Method: In certain embodiments, activity of doxorubicin conjugates was assayed by monitoring alteration in the ability of Topoisomerase II, by electrophoresis, to catalyze the formation of relaxed conformation DNA from a super-coiled plasmid.
Specifically the kit was used to assay whether Doxorubicin conjugates altered the ability of Topoisomerase II to catalyze the formation of relaxed conformation DNA from a super-coiled plasmid. Doxorubicin conjugates were compared directly to Doxorubicin at 10, 3, 1, 0.3, 0.1 and 0.03 micromolar concentrations. The quantity of relaxed conformation DNA was quantified from an agarose gel on which is it is separated from the super-coiled DNA by standard electrophoresis. […] The results are presented in terms of percent activity of Doxorubicin.

[2] = test system: Normal human foreskin fibroblasts (HFF); experiment: Cytotoxicity assay (monolayer), HFF; format: cell-based; conditions: Fibroblast, monolayer, 72 hours, AlamarBlue, read-out: HFF (EC50 Ave) ML
Method: (§1) Statistical Assoc., 81, 991-999, 1986.
(§2) Monolayer assays with tumor cell lines (MCF-7 breast carcinoma and HT-29 colorectal carcinoma from ATCC) were carried out in triplicate in 96-well plates with RPMI1640 medium containing 5% fetal bovine serum, 100 U/ml penicillin and 100 μg/ml streptomycin. Normal human foreskin fibroblasts (HFF #CC-2509) were from Cambrex and were cultured in FGM-2 medium. Exponentially growing cells (5,000 MCF-7 or HT-29; 1,500 HFF) were plated in 100 μl medium and incubated overnight (5% CO2, 37° C.). Compounds (20 pM to 20 μM final concentration, 6-8 doses) and vehicle (DMSO) controls were added and the incubation was continued for an additional 72 hours. Final cell density was determined by incubating cultures with 25 μl AlamarBlue reagent (BioSource, Camarillo, Calif.) for 4 hours, followed by determination of fluorescence at excitation of 544 nm and emission of 590 nm with a SpectroMax Gemini EM fluorescence plate reader (Molecular Devices, Sunnyvale, Calif.). EC50 values were generated from dose-response curves by a 4-parameter method using Softmax PRO software. Mean EC50s (±SD) represent the average of all tests carried out for all lots of a given compound. […] Statistical Assoc., 81, 991-999 (1986).

[3] = test system: MCF-7 breast carcinoma; experiment: Cytotoxicity assay (monolayer), MCF-7; format: cell-based; conditions: Homo sapiens, MCF7; monolayer, 72 hours, AlamarBlue; read-out: MCF7 (EC50 Ave) ML
Method: as §1, §2

[4] = biological target: T2, Human thymidine kinase 1 (TK1) (Homo sapiens, UniProt P04183); experiment: Thymidine kinase coupled (kinetic) ATP depletion assay; format: biochemical; conditions: initial velocity relative to thymidine; 100 μM conjugate
T2 construct: His tag (from pET28b(+)) (N); made in house; host or cells: E. coli BL21-codon plus
T2 sequence (P04183 1-234): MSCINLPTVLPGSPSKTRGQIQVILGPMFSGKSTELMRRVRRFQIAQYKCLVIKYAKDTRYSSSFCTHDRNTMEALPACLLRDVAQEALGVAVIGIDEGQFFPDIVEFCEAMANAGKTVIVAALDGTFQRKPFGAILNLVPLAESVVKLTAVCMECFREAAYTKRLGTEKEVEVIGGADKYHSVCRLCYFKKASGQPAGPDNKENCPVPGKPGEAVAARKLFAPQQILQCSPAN
Method: Thymidine kinase, viral thymidine kinase, TK-1 deoxycytidine kinase, and deoxyguanosine kinase activities are determined by subjecting a first end of a linker used in synthesizing linker-substrate constructs to a first test. The first test may involve observing ADP formation, an obligatory co-product of phospho group transfer from ATP which is catalyzed by the kinase to the C5′ hydroxyl group or its equivalent in the nucleoside or nucleoside analog. Formation of ADP is followed by a coupled enzyme assay well known in the art. ADP, formed from kinase phosphorylation, is used by pyruvate kinase to generate pyruvate from phosphoenolpyruvate which in turn is converted to lactate by lactate dehydrogenase. The lactate results in the consumption of NADH which is followed spectrophotometrically. The rate of nucleoside phosphorylation is then directly related to the rate of decrease in the observed NADH signal.
TK1 was amplified using PCR with forward primer 5′-[…]-3′ and reverse primer 5′-[…]-3′. The PCR product was digested with Nde I and Hind III. An N-terminal His-tagged TK1 construct, TK1/pET28b(+), was generated by subcloning TK1 into the Nde I and Hind III sites of prokaryotic expression vector pET28b (+) (Novagen, San Diego, Calif.). TK1 was expressed from TK1/pET28b(+) using E. coli strain BL21-codon plus (Stratagene, San Diego, Calif.) and purified by Ni column chromatography.
A coupled (kinetic) ATP depletion assay was developed to measure thymidine kinase activity. The reaction contained 100 mM Tris HCl, pH 7.5, 20 mM MgCl2, 100 mM KCl, 0.4 mM PEP, 0.2 mM NADH, Pyruvate Kinase (0.7 units)/Lactate Dehydrogenase (1.0 unit) (Sigma #PO294), 2.5-10 μg Thymidine Kinase, 100 μM thymidine or thymidine-drug conjugate in a volume of 75 μl. ATP (5 mM in 25 μl H2O) was added to initiate the reaction and the velocity of ATP depletion was monitored at 340 nm continuously for 15 minutes.

[5] = test system: HUVEC; experiment: Cytotoxicity assay (monolayer), HUVEC; format: cell-based; conditions: Homo sapiens, read-out: HUVEC (EC50 Ave) ML
[6] = test system: HT-29 colorectal carcinoma; experiment: Cytotoxicity assay (monolayer), HT-29; format: cell-based; conditions: Homo sapiens, monolayer, 72 hours, AlamarBlue, read-out: HT29 (EC50 Ave) ML
Method: as §1, §2

[7] = test system: MCF7; experiment: Cytotoxicity assay, MCF7 SSA (SSA not explained); format: cell-based; conditions: Homo sapiens
[8] = test system: breast carcinoma, colon carcinoma and leukemia; experiment: Cytotoxicity of drug-thymidine conjugates (Example 22); format: cell-based
[9] = test system: MCF-7 breast carcinoma; experiment: Cytotoxicity assay (soft agar), MCF-7; conditions: Homo sapiens, MCF7, read-out: MCF7 (EC50 Ave) SA
[10] = test system: HT29; experiment: Cytotoxicity assay, HT29 SSA (SSA not explained); format: cell-based; conditions: Homo sapiens, HT-29; read-out: HT29 (EC50 Ave) SSA
[11] = test system: HT-29 colorectal carcinoma; experiment: Cytotoxicity assay (soft agar), HT-29; conditions: Homo sapiens, HT-29, read-out: HT29 (EC50 Ave) SA
[12] = test system: tubulin; experiment: Fluorescence-based microtubule polymerization assay (MPA); format: biochemical; conditions: mean percentage of paclitaxel or vinblastine activity; 0.75-10 micromolar
In short: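 Tubulin polymerization was followed by fluorescence (ex 360/em 405 nm) in a commercial kit with 1 mg/ml BSA added to every assay, glycerol being omitted for paclitaxel conjugates. Parent drugs and conjugates were tested at 0.75, 1.5, 3 and 10 micromolar final. Curves from the linear range of the dose responses were compared.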

Structure (SMILES): COc1cccc2c1C(=O)c1c(O)c3c(c(O)c1C2=O)C[C@@](O)(C(=O)CO)C[C@@H]3OC1CC(NCCCN2C(=O)CC(SCCC(=O)NCCCCCCn3c(=O)c(C)cn([C@H]4CC(O)[C@@H](CO)O4)c3=O)C2=O)C(O)C(C)O1 (stereo partly drawn) [DOX-3′ALK-MALa(17)-N3-THY]
Ave. MPA Act (doxorubicin) [1]: A (A<60)
EC50 [2]: > 1 µM
EC50 [3]: > 1 µM
Ave. TK1 Kinase Act. [4]: A (A<20)
EC50 [5]: > 1 µM

Ave. MPA Act (doxorubicin) [1]: C (C>100)
Ave. TK1 Kinase Act. [4]: A (A<20)
Structure (SMILES): COc1cccc2c1C(=O)c1c(O)c3c(c(O)c1C2=O)C[C@@](O)(C(=O)CO)C[C@@H]3O[C@H]1C[C@H](N)[C@H](O)[C@H](C)O1 [Doxorubicin]
EC50 [6]: 0.1 to 1 µM
EC50 [2]: < 0.1 µM
EC50 [3]: < 0.1 µM
EC50 [5]: < 0.1 µM

Ave. TK1 Kinase Act. [4]: A (A<20)
Structure (SMILES): CC[C@]1(O)C[C@@H]2CN(CCc3c([nH]c4ccccc34)[C@@](C(=O)OC)(c3cc4c(cc3OC)N(C)[C@H]3[C@@](O)(C(=O)OC)[C@H](OC(C)=O)[C@]5(CC)C=CCN6CC[C@]43[C@@H]65)C2)C1 [Vinblastine]
EC50 [6]: < 0.1 µM
EC50 [7]: < 0.1 µM
EC50 [2]: < 0.1 µM
EC50 [8]: 0.001 to 0.002 µM
EC50 [9]: < 0.1 µM
EC50 [10]: < 0.1 µM
EC50 [11]: < 0.1 µM
EC50 [3]: < 0.1 µM
Ave. MPA Act [12]: C (C>100)
